Measured values published in patent US20190307820A1, “COMPOSITIONS AND METHODS OF USING STAT1/3 INHIBITORS WITH ONCOLYTIC HERPES VIRUS” (priority 2016, published 2019).
Where a name gives a salt, the structure may show the parent alone.

Legend:
ICP4 = assay: Western blot of ICP4 in HSV-1 infected microglia cells; format: cell-based; settings: G207 infected; 1 μM C16, 1 μM Bay11 or 100 μM AG; 24 hours
Protocol: FIG. 12B depicts an electrophoresis gel showing total proteins that were harvested from G2O7 infected microglia cells at 24 hours post treatment with either 1 μM of C16, 1 μM of Bay11, or 100 μM of AG. ICP27, ICP4, and […] expression was measured by western blot assay. U87 and MG co-culture were pretreated with 0.5 μM of C16 for 1 hour.
Total protein was harvested with sample buffer (125 mM Tris-HCL, 50% Glycerol, […] and 5% 2-mercaptoethanol) and boiled for 5 minutes. Protein samples were subjected to SDS-PAGE (8% gel), transferred to nitrocellulose membranes and blocked in 5% nonfat milk (Bio Rad) in TBS-Tween 20 (TBS-T) for 1 hour at room temperature. The membranes were then incubated with primary antibody against β-actin at 1:1000 (Cell Signaling, Danvers, Mass.) or anti-STAT1 antibody at 1:1000 (Cell Signaling, Danvers, Mass.) or anti-STAT3 antibody at 1:1000 (Cell Signaling, Danvers, Mass.) or anti-phospho STAT1 antibody (Tyr701) at 1:1000 (Cell Signaling, Danvers, Mass.) or anti-phospho STAT3 antibody (Tyr705) at 1:1500 (Cell Signaling, Danvers, Mass.) or anti-phosphor-eIF2a antibody (ser51) at 1:1000 (Cell Signaling, Danvers, Mass.) or anti-ICP27 antibody at 1:1000 (Abcam, Cambridge, Mass.) or anti-ICP4 antibody at 1:750 (Abcam, Cambridge, Mass.) for overnight at 4° C. […] Band density was measured by using ImageJ software (NIH, Bethesda, Md.). […]

[1] = test system: oHSV-1 (G207) in BV2 cells; assay: G207 replication in BV2 cells with chemical inhibitors, plaque forming assay; format: cell-based, HSV-1; settings: G207 MOI of 1, 48 hours
Protocol: FIG. 12A contains bar graphs showing the results of BV2 cells that were pre-treated with indicated chemical compounds for 1-2 hours and then infected with oHSV-1 at an MOI of 1. Viruses were harvested after 48 hours of oHSV-1 (G207) and indicated chemical inhibitor treatment.
FIG. 12F is a bar graph showing the results of BV2 cells that were pre-treated with indicated chemical compounds for 1-2 hours and then infected with oHSV-1 at an MOI of 1. Viruses were harvested after 48 hours of oHSV-1 (G207) and indicated chemical inhibitor treatment. After 48 hours of treatment with oHSV-1 (G207) and C16, viruses were harvested and titrated by plaque forming assay on vero cells.
U87 (5×104) alone or U87+microglia co-culture (5×104+5×104) or BV2 microglia cells (5×104) alone were seeded into a 24-well plate. After overnight incubation (to allow the cells to attach), cells were pretreated with indicated concentration of NFkB inhibitor, Bay-11 (Santa Cruz, Canada) or an indicated concentration of imidazolo-oxindole derivative C16 (Milipore, Canada) or vehicle for 1-2 hours. The cells were then infected with oHSV-1 (G207 or HrR3) virus at a MOI of 1 in presence of chemical inhibitors for another 2 days. The viruses were harvested and titrated in vero cells by plaque forming assay in 12-well plates by triplicates.
The effects of a PKR inhibitor (C16), a NFkappaB inhibitor (Bay11), and an iNOS inhibitor (aminoguanidine hydrochloride) were tested on G207 replication in BV2 cells (Example 15). […] To verify that C16-mediated viral gene transcriptional augmentation is not due to deletions in ICP34.5 and/or ICP6 in G207, the effect of C16 on wild type (KOS) and ICP6 mutated (HrR3) HSV-1 infected BV2 cells was also examined. […] Finally, whether C16 can overcome this microglia-mediated suppression of viral replication in glioma cells was examined.

SMILES	upregulated expression of ICP4 (ICP4)	effect on oHSV-1 replication [1]
Cc1ccc(S(=O)(=O)/C=C/C#N)cc1 [Bay11]	not	no effect on oHSV-1 replication
N=C(N)NN [aminoguanidine hydrochloride]		no effect on oHSV-1 replication
